Laboratory results as given in US6809208B2, “3-Arylbenzofuranones with electron-withdrawing substituents as stabilizers” (Ciba Specialty Chemicals Corporation, priority 2000, dated 2004).

Columns and labels:
[1] = Stabilization of multiple-extruded polypropylene; settings: 0.05% of compound; heating zones 260, 270, 280° C.; measured at 230° C./2.16 kg; without compound 17.5
Experimental: 1.3 kg of polypropylene powder (Profax 6501), which has been prestabilized with 0.025% of Irganox®1076 (n-octadecyl 3-[3,5-di-tert-butyl-4-hydroxyphenyl]propionate) (melt index 3.2 g/10 min, measured at 230° C./2.16 kg) are blended with 0.05% of Irganox®1010 (pentaerythritol tetrakis[3-(3,5-di-tert-butyl-4-hydroxyphenyl)propionate]), 0.05% of calcium stearate, 0.03% of DHT 4A® (Kyowa Chemical Industry Co., Ltd., [Mg4.5Al2(OH)13CO3.3.5H2O]) and 0.05% of compound of Table 4. This blend is then extruded in an extruder having a cylinder diameter of 20 mm and a length of 400 mm at 100 rpm, the 3 heating zones being adjusted to the following temperatures: 260, 270, 280° C. The extrudate is cooled by drawing it through a water bath and is then granulated. This granulate is repeatedly extruded. After 3 extrusions, the melt index is measured (at 230° C./2.16 kg). A substantial increase in the melt index denotes pronounced chain degradation, i.e. poor stabilization.

[2] = Stabilization of polyethylene during processing (Brabender plastograph); settings: 0.05 part compound and 0.05 part Irganox 1010 per 100 parts polyethylene; 220° C., 50 rpm; without compound 9.7
Experimental: 100 parts of polyethylene powder (Lupolen®5260 Z) are blended with 0.05 part of Irganox®1010 (pentaerythritol tetrakis[3-(3,5-di-tert-butyl-4-hydroxyphenyl)propionate]) and 0.05 part of a compound of Table 5 and the blend is kneaded in a Brabender plastograph at 220° C. and 50 rpm. During this time the kneading resistance is recorded continuously as torque. In the course of the kneading time the polymer begins to crosslink after prolonged constancy, as can be determined by the rapid increase in torque. The time taken until a marked increase in torque is shown in Table 5 as a measure of the stabilizing action. The longer this time is the better the stabilizing action.

[3] = Prevention of migration of the oxidized developer in a color photographic material (three layer test elements, interlayer scavenger); settings: 20 mg.m^−2 scavenger in interlayer; AGFA P-94 developing process; control without scavenger 0.293
Experimental: To evaluate compounds of this invention with respect to their ability as interlayer scavengers for oxidized developing agent, three layer photographic test elements are prepared by providing layers in the order indicated on a polyethylene-coated paper support:
(2) An interlayer containing:
The test elements are imagewise exposed through a step wedge with density increment 0.15 and thereafter subjected to the AGFA P-94 developing process.
Upon processing of the test elements, some oxidized developer is prone to migrate from the layer in which it is formed, for example the undermost, magenta-dye-providing layer, to the topmost layer containing the cyan-dye-forming coupler, thereby producing unwanted cyan dye. The amount of cyan dye that is generated depends on the ability of the interlayer to prevent the diffusion of oxidized developer.

[4] = Stabilization of polycarbonate (oven ageing at 135° C., yellowness index and transmission); settings: 0.01% stabilizer
Experimental: This mixture is then extruded in a Schwabenthan extruder at a maximum of 280° C. The polymer string is then granulated. Using an injection moulding machine, plates having a layer thickness of 2 mm are then moulded from the granulate so obtained at a maximum of 300° C. […] Low YI values denote little discoloration, high YI values high discoloration of the patterns. […] The results are compiled in Tables 17 and 18.

[5] = Stabilisation of polybutylene terephthalate (impact strength in oven-ageing test at 160° C.); settings: for Impact strength after 360 h: without stabilizer 26
Experimental: 1.0 kg of a polybutylene terephthalate powder which has been dried for 10 hours at 100° C. in a vacuum drying oven (Crastin®S600, of Ciba Specialty Chemicals Inc.) is charged with the stabilizers listed in Table 20 and is mixed for 2 minutes in a Henschel mixer. This mixture is then extruded in a twin-screw extruder (type Berstorff) at a maximum of 250° C. and is then granulated. In an injection moulding apparatus, the granulate so obtained is moulded at a maximum of 260° C. to little rods 4×6 mm thick and 50 mm long. These little rods are then aged in a circulating air oven at 160° C. After 360 hours the impact strength of the rods is measured in KJ/m^2. The higher the values, the better the stabilization.

[6] = Stabilization of multiple-extruded polypropylene at high temperature; set-up: unit not given here; settings: stabilizer 0.050% by weight, measured at 230° C./2.16 kg
Experimental: This blend is then extruded in an extruder having a cylinder diameter of 20 mm and a length of 400 mm at 100 rpm, the 3 heating zones being adjusted to the following temperatures: 280, 320, 340° C. The extrudate is cooled by drawing it through a water bath and is then granulated. This granulate is repeatedly extruded. […] A substantial increase in the melt index denotes pronounced chain degradation, i.e. poor stabilization.

[7] = Stabilization of polycarbonate (Weather-O-Meter exposure); settings: 0.30% stabilizer; Weather-O-Meter WOM CI 65; without stabilizer 30.2
Experimental: 1.0 kg of a polycarbonate powder which has been dried for 8 hours at 120° C. in a vacuum drying oven (Lexan®145, of General Electric) is charged with the stabilizers listed in Table 21 and is mixed for 2 minutes in a Henschel mixer. This mixture is then extruded in a Schwabenthan extruder at a maximum of 280° C. The polymer string is then granulated. Using an injection moulding machine, plates having a layer thickness of 2 mm are then moulded from the granulate so obtained at a maximum of 300° C. These plates are then irradiated in a Weather-O-Meter (WOM CI 65) for 2500 hours at a black standard temperature of 63° C., at a dry/wet cycle of 102/18 minutes and at an intensity of 0.35 W/m^2 at 340 nm. The yellowness index (YI) of these plates is then determined according to ASTM D 1925-70. Low YI values denote little discoloration, high YI values high discoloration of the plates. […]

CC(C)(C)c1cc2c(c(C(C)(C)C)c1)OC(=O)C2c1ccc(F)cc1 (stereo not drawn) [(105), 5,7-di-tert-butyl-3-(4-fluorophenyl)-3H-benzofuran-2-one]
Melt index after 3 extrusions [1]: 4.7 | melting point: 146 to 147 °C | Time until increase in torque [2]: 27.0 min

CC(C)(C)c1cc2c(c(C(C)(C)C)c1)OC(=O)C2c1ccc(C#N)cc1 (stereo not drawn) [Compound (106), 5,7-di-tert-butyl-3-(4-cyanophenyl)-3H-benzofuran-2-one]
melting point: 136 to 137 °C

COC(=O)c1ccc(C2C(=O)Oc3c2cc(C(C)(C)C)cc3C(C)(C)C)cc1 (stereo not drawn) [Compound (109), 5,7-di-tert-butyl-3-(4-methoxycarbonylphenyl)-3H-benzofuran-2-one]
Melt index after 3 extrusions [1]: 4.8 | Cyan density at a magenta density of 1.5 [3]: 0.254 | Time until increase in torque [2]: 27.5 min

CCCCCCCCCCCCCCCCCCOC(=O)c1ccc(C2C(=O)Oc3c2cc(C(C)(C)C)cc3C(C)(C)C)cc1 (stereo not drawn) [Compound (112)]
Yellowness index prior to oven-ageing ([4]; 2 mm plates, ASTM D 1925-70): 3.5 | Transmission in % prior to oven-aging ([4]; at 450 nm): 85.9% | Transmission in % after 2000 hours at 135° C. ([4]; at 450 nm, without stabilizer 76.4): 81.8% | Yellowness index after 2000 hours at 135° C. ([4]; circulating air oven, without stabilizer 25.0): 14.3

Cc1cc(CCC(=O)OCCOCCOCCOC(=O)CCc2cc(C)c(O)c(C(C)(C)C)c2)cc(C(C)(C)C)c1O [Irganox ®245]
Impact strength after 0 h ([5]; 0.05% stabilizer): 132 KJ/m^2 | Impact strength after 360 h ([5]; 0.05% stabilizer): 111 KJ/m^2 | Impact strength after 0 h ([5]; 0.10% stabilizer): 135 KJ/m^2 | Impact strength after 360 h ([5]; 0.10% stabilizer): 114 KJ/m^2

CC(C)(C)c1ccc(OP(Oc2ccc(C(C)(C)C)cc2C(C)(C)C)c2ccc(-c3ccc(P(Oc4ccc(C(C)(C)C)cc4C(C)(C)C)Oc4ccc(C(C)(C)C)cc4C(C)(C)C)cc3)cc2)c(C(C)(C)C)c1 [Sandostab ®P-EPQ, tetrakis(2,4-di-tert-butylphenyl)-4,4′-biphenylene diphosphonite]
Melt index after 5 extrusions ([6]; 280° C.): 6.3 | Melt index after 5 extrusions ([6]; 320° C.): 23.9 | Melt index after 5 extrusions ([6]; 340° C.): 61.5

CC(C)(c1ccccc1)c1cc(-n2nc3ccccc3n2)c(O)c(C(C)(C)c2ccccc2)c1 [Tinuvin ®234]
Yellowness index after 2500 h exposure to light [7]: 17.8

CC(C)(C)CC(C)(C)c1cc(Cc2cc(C(C)(C)CC(C)(C)C)cc(-n3nc4ccccc4n3)c2O)c(O)c(-n2nc3ccccc3n2)c1 [Tinuvin ®360]
Yellowness index after 2500 h exposure to light [7]: 16.6

CCCCCCOc1ccc(-c2nc(-c3ccccc3)nc(-c3ccccc3)n2)c(O)c1 [Tinuvin ®1577]
Yellowness index after 2500 h exposure to light [7]: 11.2
